Each structure is given as a SMILES string.

For assay [1], the target named is Carbonic anhydrase 9 (Homo sapiens, UniProt Q16790).
Description: Inhibition of human recombinant carbonic anhydrase 9 expressed in Escherichia coli preincubated for 6 hrs by stopped flow CO2 hydrase assay
In assay [2] the target is Carbonic anhydrase 1 (Homo sapiens, UniProt P00915). Kind of assay: Inhibition of human recombinant carbonic anhydrase 1 expressed in Escherichia coli preincubated for 6 hrs by stopped flow CO2 hydrase assay.
For assay [3], the target named is Carbonic anhydrase 2 (Homo sapiens, UniProt P00918). The assay can be described thus: Inhibition of human recombinant carbonic anhydrase 2 expressed in Escherichia coli preincubated for 6 hrs by stopped flow CO2 hydrase assay.
For assay [4], the target named is Carbonic anhydrase 12 (Homo sapiens, UniProt O43570). The assay can be described thus: Inhibition of human recombinant carbonic anhydrase 12 expressed in Escherichia coli preincubated for 6 hrs by stopped flow CO2 hydrase assay.
Sequence of Carbonic anhydrase 12 (O43570 whole entry): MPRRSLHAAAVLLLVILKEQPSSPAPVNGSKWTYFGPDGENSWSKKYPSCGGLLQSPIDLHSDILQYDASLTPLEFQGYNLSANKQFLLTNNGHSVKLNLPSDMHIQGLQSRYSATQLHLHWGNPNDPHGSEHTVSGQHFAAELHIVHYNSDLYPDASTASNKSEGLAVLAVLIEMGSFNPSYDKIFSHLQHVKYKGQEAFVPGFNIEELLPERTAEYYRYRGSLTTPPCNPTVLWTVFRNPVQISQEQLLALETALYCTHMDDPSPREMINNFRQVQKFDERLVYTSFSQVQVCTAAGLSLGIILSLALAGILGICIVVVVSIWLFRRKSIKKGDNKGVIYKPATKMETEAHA

Sequence of Carbonic anhydrase 1 (P00915 whole entry): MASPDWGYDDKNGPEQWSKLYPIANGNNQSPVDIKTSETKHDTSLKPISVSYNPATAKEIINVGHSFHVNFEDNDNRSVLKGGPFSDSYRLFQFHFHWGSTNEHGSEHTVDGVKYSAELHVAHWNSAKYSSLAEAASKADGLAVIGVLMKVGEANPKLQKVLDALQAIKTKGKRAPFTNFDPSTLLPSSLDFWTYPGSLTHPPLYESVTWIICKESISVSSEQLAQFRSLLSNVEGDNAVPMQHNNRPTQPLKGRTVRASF

Usually Ki stands for a dissociation constant, usually derived from enzyme kinetics or from competition with a known ligand. `COc1ccc2c(c1)/C(=N/NC(=O)c1cnn(-c3ccc(S(N)(=O)=O)cc3)c1N)C(=O)N2` gave an inhibition constant Ki in assay [1] of 3.5 nM.
On the same count and under the same terms, the value for `NS(=O)(=O)c1ccc(-n2nc(C(=O)N/N=C3\C(=O)Nc4ccc(Cl)cc43)cc2-c2ccccc2)cc1` was 7.4 nM.
Same read-out and setting: under `Nc1c(C(=O)N/N=C2\C(=O)Nc3ccccc32)cnn1-c1ccc(S(N)(=O)=O)cc1` stands 2.8 nM; under `Cc1ccc2c(c1)/C(=N/NC(=O)c1cc(-c3ccccc3)n(-c3ccc(S(N)(=O)=O)cc3)n1)C(=O)N2`, 4.7 nM; under `NS(=O)(=O)c1ccc(-n2ncc(C(=O)N/N=C3\C(=O)Nc4ccccc43)c2-c2ccccc2)cc1`, 52.9 nM.
For the compound `NS(=O)(=O)c1ccc(-n2ncc(C(=O)N/N=C3\C(=O)Nc4ccc(Cl)cc43)c2-c2ccccc2)cc1`, the Ki in assay [1] was determined as 9.7 nM.
`Nc1c(C(=O)N/N=C2\C(=O)Nc3ccc(Cl)cc32)cnn1-c1ccc(S(N)(=O)=O)cc1` had a Ki in assay [1] of 2.5 nM.
The same measure, in the same setting: the value for `NS(=O)(=O)c1ccc(-n2ncc(C(=O)N/N=C3\C(=O)Nc4ccc(Br)cc43)c2-c2ccccc2)cc1` was 7.8 nM.
Regarding `Nc1c(C(=O)N/N=C2\C(=O)Nc3ccc([N+](=O)[O-])cc32)cnn1-c1ccc(S(N)(=O)=O)cc1`, the Ki in assay [2] stood at 70.4 nM; in assay [3], 23.1 nM; in assay [1] it was 7.4 nM; in assay [4], 5.4 nM.
In assay [1], `NS(=O)(=O)c1ccc(-n2nc(C(=O)N/N=C3\C(=O)Nc4ccccc43)cc2-c2ccccc2)cc1` registered a Ki of 8.8 nM.
For the compound `NS(=O)(=O)c1ccc(-n2ncc(C(=O)N/N=C3\C(=O)N(Cc4ccccc4)c4ccccc43)c2-c2ccccc2)cc1`, the Ki in assay [4] was 6.5 nM.
Compound `NS(=O)(=O)c1ccc(-n2ncc(C(=O)N/N=C3\C(=O)Nc4ccc([N+](=O)[O-])cc43)c2-c2ccccc2)cc1` registered a Ki in assay [1] of 15.7 nM.
For `Nc1c(C(=O)N/N=C2\C(=O)Nc3ccc(Br)cc32)cnn1-c1ccc(S(N)(=O)=O)cc1`, in assay [1], the Ki came to 9.4 nM.
Same read-out and setting: the value for `NS(=O)(=O)c1ccc(-n2nc(C(=O)N/N=C3\C(=O)Nc4ccc(Br)cc43)cc2-c2ccccc2)cc1` was 20 nM.

(Values after ChEMBL document CHEMBL3632485 (Eur J Med Chem, 2015).)
